Molecular target: T1, PD-1/PD-L1 protein/protein interaction (Homo sapiens, UniProt Q9NZQ7)
T1 construct: Recombinant human PD-L1 protein (19-238) with a His-tag at the C-terminus; purchased AcroBiosystems PD1-H5229 (PD-L1); PD1-H5257 (PD-1)
Experiment: PD-1/PD-L1 homogenous time-resolved fluorescence (HTRF) binding assay
Details: recombinant human PD-L1 (19-238)-His 10 nM, human PD-1 (25-167)-Fc 3 nM, 25° C., PBS pH 7.4
Description: Resolved Fluorescence (HTRF) Binding Assay
The assays were conducted in a standard black 384-well polystyrene plate with a final volume of 20 μL. Inhibitors were first serially diluted in DMSO and then added to the plate wells before the addition of other reaction components. The final concentration of DMSO in the assay was 1%. The assays were carried out at 25° C. in the PBS buffer (pH 7.4) with 0.05% Tween-20 and 0.1% BSA. Recombinant human PD-L1 protein (19-238) with a His-tag at the C-terminus was purchased from AcroBiosy stems (PD1-H5229). Recombinant human PD-1 protein (25-167) with Fc tag at the C-terminus was also purchased from AcroBiosystems (PD1-H5257). PD-L1 and PD-1 proteins were diluted in the assay buffer and 10 μL was added to the plate well. Plates were centrifuged and proteins were preincubated with inhibitors for 40 min. The incubation was followed by the addition of 10 μL of HTRF detection buffer supplemented with Europium cryptate-labeled anti-human IgG (PerkinElmer-AD0212) specific for Fc and anti-His antibody conjugated to SureLight®—Allophycocyanin (APC, PerkinElmer-AD0059H). After centrifugation, the plate was incubated at 25° C. for 60 min. Before reading on a PHERAstar FS plate reader (665 nm/620 nm ratio). Final concentrations in the assay were—3 nM PD1, 10 nM PD-L1, 1 nM europium anti-human IgG and 20 nM anti-His-Allophycocyanin. IC50 determination was performed by fitting the curve of percent control activity versus the log of the inhibitor concentration using the GraphPad Prism 5.0 software.
Data obtained for the Example compounds using the PD-1/PD-L1 homogenous time-resolved fluorescence (HTRF) binding assay described in Example A is provided in Table 2.

T1 sequence (Q9NZQ7 19-238): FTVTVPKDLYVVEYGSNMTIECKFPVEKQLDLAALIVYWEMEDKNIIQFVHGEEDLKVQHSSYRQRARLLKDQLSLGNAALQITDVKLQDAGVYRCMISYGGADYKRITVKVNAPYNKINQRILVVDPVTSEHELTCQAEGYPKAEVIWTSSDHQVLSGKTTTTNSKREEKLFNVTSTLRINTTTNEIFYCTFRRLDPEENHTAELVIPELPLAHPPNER

Row | Structure (SMILES) | IC50 [nM]
1 | O=C(O)CN1CCc2nc(C(=O)N3CCc4c(-c5cccc6c5CCN6C(=O)c5ccccn5)cccc43)sc2C1 [Example 25, 2-(2-(1′-picolinoyl-[4,4′-biindoline]-1-carbonyl)-6,7-dihydrothiazolo[5,4-c]pyridin-5(4H)-yl)acetic acid] | 25 to 100
2 | Cc1c(OCCCN2CCOCC2)cccc1-c1cccc2c1CCN2C(=O)c1nc2c(n1C)CN(CC(=O)O)CC2 [Example 21, 2-(3-methyl-2-(4-(2-methyl-3-(3-morpholinopropoxy)phenyl)indoline-1-carbonyl)-3,4,6,7-tetrahydro-5H-imidazo[4,5-c]pyridin-5-yl)acetic acid] | ≤ 25
3 | O=C(O)CN1CCc2nc(C(=O)N3CCc4c(-c5cccc(/C=C/CN6CCOCC6)c5)cccc43)sc2C1 [Example 18, (E)-2-(2-(4-(3-(3-morpholinoprop-1-en-1-yl)phenyl)indoline-1-carbonyl)-6,7-dihydrothiazolo[5,4-c]pyridin-5(4H)-yl)acetic acid] | ≤ 25
4 | Cn1ncc2c(-c3cccc4c3CCN4C(=O)c3nc4c(s3)CN(CC(=O)O)CC4)cccc21 [Example 30, 2-(2-(4-(1-methyl-1H-indazol-4-yl)indoline-1-carbonyl)-6,7-dihydrothiazolo[5,4-c]pyridin-5(4H)-yl)acetic acid] | ≤ 25
5 | Cn1ncc2c(-c3cccc4c3CCN4C(=O)c3cn4c(n3)CNCC4)cccc21 [Example 48, (4-(1-methyl-1H-indazol-4-yl)indolin-1-yl)(5,6,7,8-tetrahydroimidazo[1,2-a]pyrazin-2-yl)methanone] | 100 to 200

Further lines, results first:

Row | IC50 [nM] | Structure (SMILES)
6 | ≤ 25 | Cc1c(NC(=O)CCN2CCC(O)C2)cccc1-c1cccc2c1CCN2C(=O)c1nc2c(n1C)CNCC2 (stereo not drawn) [Example 34, 3-(3-hydroxypyrrolidin-1-yl)-N-(2-methyl-3-(1-(3-methyl-4,5,6,7-tetrahydro-3H-imidazo[4,5-c]pyridine-2-carbonyl)indolin-4-yl)phenyl)propanamide]
7 | 25 to 100 | O=C(O)CN1CCc2nc(C(=O)N3CCc4c(-c5cccc6c5CCN6C(=O)c5nccs5)cccc43)sc2C1 [Example 24, 2-(2-(1′-(thiazole-2-carbonyl)-[4,4′-biindoline]-1-carbonyl)-6,7-dihydrothiazolo[5,4-c]pyridin-5(4H)-yl)acetic acid]
8 | 25 to 100 | O=C(O)CN1CCc2nc(C(=O)N3CCc4c(-c5ccc6c(c5)OCCO6)cccc43)sc2C1 [Example 55, 2-(2-(4-(2,3-dihydrobenzo[b][1,4]dioxin-6-yl)indoline-1-carbonyl)-6,7-dihydrothiazolo[5,4-c]pyridin-5(4H)-yl)acetic acid]
9 | ≤ 25 | O=C(O)CN1CCc2nc(C(=O)N3CCc4c(-c5cccc(NC(=O)CCN6CCC(O)C6)c5)cccc43)sc2C1 (stereo not drawn) [Example 14, 2-(2-(4-(3-(3-(3-hydroxypyrrolidin-1-yl)propanamido)phenyl)indoline-1-carbonyl)-6,7-dihydrothiazolo[5,4-c]pyridin-5(4H)-yl)acetic acid]
10 | ≤ 25 | Cc1c(OCCCN2CCC(O)C2)cccc1-c1cccc2c1CCN2C(=O)c1nc2c(n1C)CN(CC(=O)O)CC2 (stereo not drawn) [Example 36, 2-(2-(4-(3-(3-(3-hydroxypyrrolidin-1-yl)propoxy)-2-methylphenyl)indoline-1-carbonyl)-3-methyl-3,4,6,7-tetrahydro-5H-imidazo[4,5-c]pyridin-5-yl)acetic acid]
11 | ≤ 25 | Cc1c(NC(=O)CCN2CCC(O)C2)cccc1-c1cccc2c1CCN2C(=O)c1nc2c(o1)CN(CC(=O)O)CC2 (stereo not drawn) [Example 22, 2-(2-(4-(3-(3-(3-hydroxypyrrolidin-1-yl)propanamido)-2-methylphenyl)indoline-1-carbonyl)-6,7-dihydrooxazolo[5,4-c]pyridin-5(4H)-yl)acetic acid]
12 | ≤ 25 | O=C(c1nc2c(s1)CN(CCO)CC2)N1CCc2c(-c3ccc4c(c3)OCCO4)cccc21 [Example 56, (4-(2,3-dihydrobenzo[b][1,4]dioxin-6-yl)indolin-1-yl)(5-(2-hydroxyethyl)-4,5,6,7-tetrahydrothiazolo[5,4-c]pyridin-2-yl)methanone]
